Measured values: publication PMC7206119, “RIP1 inhibition blocks inflammatory diseases but not tumor growth or metastases” (Cell Death and Differentiation, 2019)

Columns and labels:
Test in all cases: biochemical
Design in all cases: DiscoverX kinase panel, active-site competition binding (KINOMEscan type), percent of control at one concentration
Details in all cases: competition binding, percent of control
[1] = biological target: T1, ABL1(T315I)-phosphorylated (Homo sapiens, UniProt P00519, T315I)
T1 construct: phosphorylated

ADCK3 = biological target: T2, ADCK3 (Homo sapiens, UniProt Q8NI60)
T2 construct: gene COQ8A
T2 sequence (Q8NI60 whole entry): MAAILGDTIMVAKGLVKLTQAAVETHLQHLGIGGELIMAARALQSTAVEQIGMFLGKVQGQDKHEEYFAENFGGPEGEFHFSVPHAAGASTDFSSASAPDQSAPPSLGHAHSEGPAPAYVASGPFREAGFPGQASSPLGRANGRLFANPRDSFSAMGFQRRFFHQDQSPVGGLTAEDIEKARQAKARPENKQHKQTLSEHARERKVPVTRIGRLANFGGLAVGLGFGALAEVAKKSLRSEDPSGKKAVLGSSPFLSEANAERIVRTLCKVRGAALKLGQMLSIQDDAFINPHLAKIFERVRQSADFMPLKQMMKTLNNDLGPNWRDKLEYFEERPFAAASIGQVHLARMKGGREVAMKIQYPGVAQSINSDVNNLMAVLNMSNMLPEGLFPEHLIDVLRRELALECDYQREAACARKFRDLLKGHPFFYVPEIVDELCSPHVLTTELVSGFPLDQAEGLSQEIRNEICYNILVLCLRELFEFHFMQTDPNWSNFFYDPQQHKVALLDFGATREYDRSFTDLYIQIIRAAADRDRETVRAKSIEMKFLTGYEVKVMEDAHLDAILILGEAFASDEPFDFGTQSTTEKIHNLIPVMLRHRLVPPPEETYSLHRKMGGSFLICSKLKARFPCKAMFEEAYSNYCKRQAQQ

BTK = BTK (Homo sapiens, UniProt Q06187)
EPHA3 = EPHA3 (Homo sapiens, UniProt P29320)
EPHB2 = EPHB2 (Homo sapiens, UniProt P29323)
FES = FES (Homo sapiens, UniProt P07332)
FGFR2 = FGFR2 (Homo sapiens, UniProt P21802)
FLT3-autoinhibited = FLT3-autoinhibited (Homo sapiens, UniProt P36888)
FLT3-autoinhibited, sequence (P36888 whole entry): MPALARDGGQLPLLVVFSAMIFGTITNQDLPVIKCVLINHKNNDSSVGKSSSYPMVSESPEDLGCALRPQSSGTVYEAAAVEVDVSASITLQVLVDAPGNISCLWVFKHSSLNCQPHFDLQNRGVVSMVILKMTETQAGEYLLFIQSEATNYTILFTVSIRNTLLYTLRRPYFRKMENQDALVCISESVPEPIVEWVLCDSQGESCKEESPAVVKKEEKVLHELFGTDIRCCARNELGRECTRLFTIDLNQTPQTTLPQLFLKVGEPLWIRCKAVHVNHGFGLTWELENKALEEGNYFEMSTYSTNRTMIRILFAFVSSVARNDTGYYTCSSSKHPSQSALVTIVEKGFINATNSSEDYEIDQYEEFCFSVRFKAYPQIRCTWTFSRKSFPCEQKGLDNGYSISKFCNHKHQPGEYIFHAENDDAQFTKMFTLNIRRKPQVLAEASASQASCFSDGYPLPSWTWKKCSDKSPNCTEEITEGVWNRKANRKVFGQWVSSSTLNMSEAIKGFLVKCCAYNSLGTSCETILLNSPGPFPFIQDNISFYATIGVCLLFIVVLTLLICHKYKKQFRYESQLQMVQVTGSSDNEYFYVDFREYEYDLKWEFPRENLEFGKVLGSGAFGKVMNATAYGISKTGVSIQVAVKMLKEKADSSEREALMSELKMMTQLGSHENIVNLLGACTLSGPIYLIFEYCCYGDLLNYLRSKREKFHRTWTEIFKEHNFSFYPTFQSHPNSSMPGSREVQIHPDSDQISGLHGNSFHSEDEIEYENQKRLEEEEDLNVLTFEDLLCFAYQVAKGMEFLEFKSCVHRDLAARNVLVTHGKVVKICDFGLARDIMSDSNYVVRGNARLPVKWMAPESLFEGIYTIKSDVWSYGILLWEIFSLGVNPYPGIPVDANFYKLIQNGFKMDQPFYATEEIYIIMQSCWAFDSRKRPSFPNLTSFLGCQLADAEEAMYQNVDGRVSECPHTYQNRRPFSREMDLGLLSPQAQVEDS

ICK = biological target: T3, ICK (Homo sapiens, UniProt Q9UPZ9)
T3 construct: gene CILK1
T3 sequence (Q9UPZ9 whole entry): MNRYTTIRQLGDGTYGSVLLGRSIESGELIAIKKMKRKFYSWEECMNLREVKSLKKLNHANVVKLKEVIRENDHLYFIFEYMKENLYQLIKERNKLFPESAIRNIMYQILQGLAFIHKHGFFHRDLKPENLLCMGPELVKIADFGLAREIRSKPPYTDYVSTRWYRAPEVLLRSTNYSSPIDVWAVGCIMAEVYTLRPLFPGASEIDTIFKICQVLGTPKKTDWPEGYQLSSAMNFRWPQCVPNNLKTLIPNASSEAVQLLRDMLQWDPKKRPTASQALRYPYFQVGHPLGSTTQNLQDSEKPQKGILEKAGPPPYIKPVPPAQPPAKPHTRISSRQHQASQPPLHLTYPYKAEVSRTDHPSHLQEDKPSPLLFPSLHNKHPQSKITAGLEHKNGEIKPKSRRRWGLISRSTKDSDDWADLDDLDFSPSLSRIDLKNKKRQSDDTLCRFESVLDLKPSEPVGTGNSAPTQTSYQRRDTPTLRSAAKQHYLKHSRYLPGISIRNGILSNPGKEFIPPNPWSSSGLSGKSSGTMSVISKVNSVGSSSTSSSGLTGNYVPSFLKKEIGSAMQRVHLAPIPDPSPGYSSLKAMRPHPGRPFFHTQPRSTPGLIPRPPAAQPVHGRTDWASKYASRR

LKB1 = biological target: T4, LKB1 (Homo sapiens, UniProt Q15831)
T4 construct: gene STK11

MAP3K2 = MAP3K2 (Homo sapiens, UniProt Q9Y2U5)
MAP3K3 = MAP3K3 (Homo sapiens, UniProt Q99759)
MAP3K3, sequence (Q99759 whole entry): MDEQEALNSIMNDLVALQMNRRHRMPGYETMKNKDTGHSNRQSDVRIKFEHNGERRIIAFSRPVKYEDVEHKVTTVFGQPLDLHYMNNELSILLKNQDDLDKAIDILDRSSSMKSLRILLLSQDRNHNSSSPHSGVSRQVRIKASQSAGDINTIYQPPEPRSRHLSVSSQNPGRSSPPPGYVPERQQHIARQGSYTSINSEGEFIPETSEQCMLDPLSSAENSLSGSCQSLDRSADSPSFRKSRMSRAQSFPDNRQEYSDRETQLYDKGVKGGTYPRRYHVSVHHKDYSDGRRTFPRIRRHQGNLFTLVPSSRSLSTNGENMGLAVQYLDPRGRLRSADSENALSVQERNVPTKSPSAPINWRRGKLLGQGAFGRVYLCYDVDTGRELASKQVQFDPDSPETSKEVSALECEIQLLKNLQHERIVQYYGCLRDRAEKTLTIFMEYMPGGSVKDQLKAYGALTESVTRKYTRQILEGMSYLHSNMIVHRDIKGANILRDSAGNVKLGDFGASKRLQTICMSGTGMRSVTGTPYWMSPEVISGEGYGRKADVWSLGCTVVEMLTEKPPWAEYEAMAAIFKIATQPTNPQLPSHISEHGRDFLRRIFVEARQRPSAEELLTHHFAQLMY

MST2 = biological target: T5, MST2 (Homo sapiens, UniProt Q13188)
T5 construct: gene STK3

NIM1 = biological target: T6, NIM1 (Homo sapiens, UniProt Q8IY84)
T6 construct: gene NIM1K

PAK7 = biological target: T7, PAK7 (Homo sapiens, UniProt Q9P286)
T7 construct: gene PAK5
T7 sequence (Q9P286 whole entry): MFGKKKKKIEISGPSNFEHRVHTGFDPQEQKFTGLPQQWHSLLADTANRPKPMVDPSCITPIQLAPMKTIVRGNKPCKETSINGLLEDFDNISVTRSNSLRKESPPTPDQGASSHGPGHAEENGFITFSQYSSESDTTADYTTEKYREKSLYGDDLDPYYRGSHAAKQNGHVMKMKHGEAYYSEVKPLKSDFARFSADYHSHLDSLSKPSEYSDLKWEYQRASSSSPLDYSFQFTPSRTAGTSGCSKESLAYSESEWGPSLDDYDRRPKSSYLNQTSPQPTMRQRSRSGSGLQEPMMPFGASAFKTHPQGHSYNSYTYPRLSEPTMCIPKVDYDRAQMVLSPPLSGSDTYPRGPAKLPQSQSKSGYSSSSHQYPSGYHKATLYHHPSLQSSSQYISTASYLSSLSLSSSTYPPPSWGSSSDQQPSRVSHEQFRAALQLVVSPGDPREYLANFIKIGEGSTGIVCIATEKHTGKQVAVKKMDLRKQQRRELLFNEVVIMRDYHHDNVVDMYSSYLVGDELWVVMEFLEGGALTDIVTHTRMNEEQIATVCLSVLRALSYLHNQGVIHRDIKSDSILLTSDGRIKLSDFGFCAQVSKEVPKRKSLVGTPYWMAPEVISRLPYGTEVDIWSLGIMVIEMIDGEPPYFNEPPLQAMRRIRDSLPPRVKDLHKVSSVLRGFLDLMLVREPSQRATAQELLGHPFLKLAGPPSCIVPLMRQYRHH

PHKG1 = PHKG1 (Homo sapiens, UniProt Q16816)
PHKG1, sequence (Q16816 whole entry): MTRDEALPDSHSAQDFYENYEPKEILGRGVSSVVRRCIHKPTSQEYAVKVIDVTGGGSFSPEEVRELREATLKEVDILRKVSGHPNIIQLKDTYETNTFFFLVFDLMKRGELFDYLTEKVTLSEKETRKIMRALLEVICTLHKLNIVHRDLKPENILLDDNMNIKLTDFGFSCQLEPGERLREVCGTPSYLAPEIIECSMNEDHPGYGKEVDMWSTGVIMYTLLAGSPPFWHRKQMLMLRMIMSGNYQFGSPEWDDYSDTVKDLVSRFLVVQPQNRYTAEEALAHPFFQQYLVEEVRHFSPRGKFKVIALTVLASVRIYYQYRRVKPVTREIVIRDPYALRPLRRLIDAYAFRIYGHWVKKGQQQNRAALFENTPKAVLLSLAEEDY

PIK3C2B = PIK3C2B (Homo sapiens, UniProt O00750)
PIP5K2B = biological target: T8, PIP5K2B (Homo sapiens, UniProt P78356)
T8 construct: gene PIP4K2B

RET(V804L) = RET(V804L) (Homo sapiens, UniProt P07949, V804L)
TIE1 = TIE1 (Homo sapiens, UniProt P35590)
TTK = TTK (Homo sapiens, UniProt P33981)
TTK, sequence (P33981 whole entry): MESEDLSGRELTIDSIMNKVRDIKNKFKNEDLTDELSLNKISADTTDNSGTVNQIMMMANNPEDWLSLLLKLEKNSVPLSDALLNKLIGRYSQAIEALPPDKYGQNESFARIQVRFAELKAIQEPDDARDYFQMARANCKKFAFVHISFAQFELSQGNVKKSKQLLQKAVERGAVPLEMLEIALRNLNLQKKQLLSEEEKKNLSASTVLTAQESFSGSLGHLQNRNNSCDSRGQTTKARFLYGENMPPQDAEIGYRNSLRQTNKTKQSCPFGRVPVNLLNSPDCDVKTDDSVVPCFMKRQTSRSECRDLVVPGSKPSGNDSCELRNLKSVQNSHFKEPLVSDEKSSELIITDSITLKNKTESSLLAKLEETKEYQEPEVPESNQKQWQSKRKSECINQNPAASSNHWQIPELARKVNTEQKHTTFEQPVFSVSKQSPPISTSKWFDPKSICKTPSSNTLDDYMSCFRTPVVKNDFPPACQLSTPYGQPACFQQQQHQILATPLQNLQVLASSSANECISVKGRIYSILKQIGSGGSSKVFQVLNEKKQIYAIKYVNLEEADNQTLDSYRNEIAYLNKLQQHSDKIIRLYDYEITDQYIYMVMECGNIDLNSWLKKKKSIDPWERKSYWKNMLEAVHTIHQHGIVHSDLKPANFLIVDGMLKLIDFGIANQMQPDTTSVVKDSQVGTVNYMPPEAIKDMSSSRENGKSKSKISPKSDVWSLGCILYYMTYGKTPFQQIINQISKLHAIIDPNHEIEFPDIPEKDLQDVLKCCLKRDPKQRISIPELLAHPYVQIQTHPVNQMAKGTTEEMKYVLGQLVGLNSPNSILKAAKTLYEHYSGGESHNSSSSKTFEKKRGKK

COc1cc2c(cn1)N(C)C(=O)[C@@H](NC(=O)c1nc3n(n1)[C@H](c1ccccc1)CC3)CC2 [GNE684, (S)-N-((S)-7-methoxy-1-methyl-2-oxo-2,3,4,5-tetrahydro-1H-pyrido[3,4-b]azepin-3-yl)-5-phenyl-6,7-dihydro-5H-pyrrolo[1,2-b][1,2,4]triazole-2-carboxamide]
remaining binding at 10 µM [1]: 81% | remaining binding at 10 µM (ADCK3): 98% | remaining binding at 10 µM (BTK): 100% | remaining binding at 10 µM (EPHA3): 91% | remaining binding at 10 µM (EPHB2): 82% | remaining binding at 10 µM (FES): 100% | remaining binding at 10 µM (FGFR2): 99% | remaining binding at 10 µM (FLT3-autoinhibited): 100% | remaining binding at 10 µM (ICK): 93% | remaining binding at 10 µM (LKB1): 100% | remaining binding at 10 µM (MAP3K2): 76% | remaining binding at 10 µM (MAP3K3): 98% | remaining binding at 10 µM (MST2): 100% | remaining binding at 10 µM (NIM1): 89% | remaining binding at 10 µM (PAK7): 90% | remaining binding at 10 µM (PHKG1): 77% | remaining binding at 10 µM (PIK3C2B): 93% | remaining binding at 10 µM (PIP5K2B): 92% | remaining binding at 10 µM (RET(V804L)): 91% | remaining binding at 10 µM (TIE1): 88% | remaining binding at 10 µM (TTK): 100%
